{
  "source": "patent EP4751721A1",
  "about": "“COMPOSITION CONTAINING NOVEL COMPOUND FOR PREVENTING OR TREATING PARKINSON'S DISEASE” (PRG S&Tech Inc., priority 2023, dated 2025)",
  "key": {"Syn^A53T-Tg mice": {"tested_on": "Syn^A53T-Tg mice", "assay": "In vivo treatment and histological analysis in Parkinson's disease (PD) mouse model", "method": "Experiments were conducted in approved facility of Association for Assessment and Accreditation of Laboratory Animal Care in accordance with animal policies approved by Pusan National University. B6.Cg-Tg (Prnp-SNCAA53T)/J mice were obtained from Jackson Laboratory (Stock No: 006823). All mice were maintained under temperature- and light-controlled conditions (20-23°C, 12 h-12 h light/dark cycle) and provided with autoclaved food and water.\n24 week-old Syn^A53T-Tg mice were administered vehicle (DMSO), PRG-A-03, and PRG-A-04 intraperitoneally twice a week for 24 to 26 weeks. Control mice were treated under the same conditions. Mice were sacrificed at 48-52 weeks of age for histological analysis. After cardiac perfusion with 4% paraformaldehyde, the brains were dissected and embedded in paraffin blocks according to standard tissue processing procedures. Embedded tissue ([…]) was cut into 5 µm sections using a tissue sectioner (Leica microtome) and transferred to adhesive-coated slides (Marienfeld laboratory glassware, Germany). For histological pathologic analysis of Syn^A53T-Tg mice, immunohistochemistry (IHC) using a dopaminergic neuronal marker (Tyrosine Hydroxylase) was performed after deparaffinization and rehydration. To monitor dopaminergic neurons by immunofluorescence (IF), dissected brains were embedded in agarose holders and sectioned with a vibratome. Thinly sliced tissues were treated with a blocking solution (normal donkey serum diluted 1:500 in 0.1% Triton X-100 PBS) for 1 h. Cells were incubated with anti-TH antibody (diluted 1:500) overnight at 4°C. Finally, cells were incubated with FITC-conjugated secondary antibody at 4°C for 2 h. Cells were washed three times with PBS, and coverslips were mounted using mounting solution (H-5501, Vector Laboratories), followed by analysis by fluorescence microscopy (Zeiss). […]"}, "[1]": {"molecular_target": "T1, synuclein mutant (Syn-A53T) (Homo sapiens, UniProt P37840, A53T)", "T1 construct": "FLAG; host or cells: SK-N-SH", "assay": "Insoluble/soluble synuclein fractionation by Western blot in SK-N-SH cells transfected with MT-Syn (Syn-A53T)", "type": "cell-based", "conditions": "treated for 24 h, pellet (insoluble) vs supernatant, FIG. 1B", "method": "For SDS-PAGE, proteins were extracted from cells using RIPA buffer (50 mM Tris-Cl, pH 7.5, 150 mM NaCl, 1% NP-40, 0.1% SDS, and […] sodium deoxycholate). Samples were separated by SDS-PAGE and transferred to a PVDF membranes. The blotted membrane was blocked with 3% skim milk containing TBST buffer for 1 h and incubated with specific antibodies. Reacted antibodies were detected by ECL and X-ray film exposure. The antibody used in this experiment was pan-Syn (GTX112799), purchased from Genetex (California, USA). Actin antibody (66009-1-lg) and α-tubulin antibody (66240-1-lg) were obtained from Proteintech (Rosemont, IL, USA). Anti-FLAG (Sigma; F3165) from Sigma Aldrich (St, Louis, MO, USA) was used as a […], and HRP-conjugated goat anti-mouse, goat anti-rabbit, and mouse anti-goat antibodies (Pierce, Thermo Fisher Scientific, Inc., Rockford, IL, USA) were used. FLAG-Syn-WT and MT vectors were transfected into SK-N-SH cells for 24 h. […]\nTo identify the effect of the PRG-A compound on alpha-synuclein aggregation, the inventors transfected the FLAG-Syn-A30P vector into SK-N-SH cells for 24 h. […] Expression of synuclein was observed under a fluorescence microscope with a pan-Syn antibody (white arrow; high intensity of Syn)."}, "normal human fibroblasts": {"tested_on": "normal human fibroblasts", "assay": "Cell viability (MTT assay) in normal human fibroblasts", "type": "cell-based", "conditions": "48 h; for cytotoxic effects (cell viability, MTT): normal human fibroblasts, FIG. 3", "method": "SK-N-SH cells were purchased from the Korean Cell Line Bank (KCLB, Seoul, South Korea) and maintained in MEM medium containing 10% fetal bovine serum, 1% antibiotics, 25 mM HEPES, and 300 mg/L L-Glu. Human fibroblasts (person) were obtained from Coridll Cell Repositories (New Jersey, USA) and maintained in EMEM containing 15% FBS and 2 mM glutamine, along with 26 mM HEPES without antibiotics.\nTo investigate cell viability, cells were treated with chemicals (PRG-A compound) for 48 h. Then, the cells were incubated with 0.5 mg/ml 3-(4,5-dimethylthiazol-2-yl)-2,5-diphenyltetrazolium bromide (MTT) solution (475989; Merck, Darmstadt, Germany) at 37°C for 4 h. After removing the excess solution and washing with PBS, the precipitated substances were dissolved in 200 µl of DMSO and quantified by measuring the absorbance at 540 nm.\nLastly, to determine the toxicity of PRG-A compounds, normal human fibroblasts and neuroblastoma cells (SK-N-SH) were cultured with each compound for 48 h, and cell viability was measured via the MTT assay. The effect on survival rates of neuronal cells and normal fibroblasts was identified (FIG. 3)."}, "Syn-A53T": {"molecular_target": "T2, Syn-A53T (Homo sapiens, UniProt P37840, A53T)", "T2 construct": "FLAG; host or cells: SK-N-SH", "assay": "Immunofluorescence staining of aggregated synuclein in transfected cells", "type": "cell-based", "conditions": "Syn-A53T vector 24 h, compound 5 µM for 24 h, pan-Syn antibody, FIG. 1C"}},
  "data": [
    {"smiles": "COc1cc(/C=C/CO[C@H]2Cc3cc4ccc(=O)oc4cc3OC2(C)C)ccc1[N+](=O)[O-]", "note": "[PRG-A-04, (S,E)-7-((3-(3-methoxy-4-nitrophenyl)allyl)oxy)-8,8-dimethyl-7,8-dihydro-2H,6H-pyrano[3,2-g]chromen-2-one]", "values": [
      {"measurement": "loss of dopaminergic neurons in the SN by IF staining using TH", "setting": "Syn^A53T-Tg mice; intraperitoneal, 20 mg/kg or 40 mg/kg, 24 to 26 weeks, FIG. 2D", "result": "prevents the loss of dopaminergic neurons"},
      {"measurement": "insoluble synuclein", "setting": "[1]", "result": "reduce insoluble synuclein in a dose-dependent manner"},
      {"measurement": "cytotoxic effects (cell viability, MTT)", "setting": "normal human fibroblasts", "result": "did not exhibit cytotoxic effects"}
    ]},
    {"smiles": "CC1(C)Oc2cc3oc(=O)ccc3cc2C[C@@H]1OC(=O)/C=C/c1ccc(F)cc1", "note": "[PRG-A-03, (S)-8,8-dimethyl-2-oxo-7,8-dihydro-2H,6H-pyrano[3,2-g]chromen-7-yl (E)-3-(4-fluorophenyl)acrylate]", "values": [
      {"measurement": "phosphorylation of Tau in brain tissue", "setting": "Syn^A53T-Tg mice; brain tissue of Syn-A53T Tg, FIG. 2C", "result": "suppresses phosphorylation of Tau"},
      {"measurement": "Dopaminergic neuron markers (Tyrosine Hydroxylase, TH) in the substantia nigra (SN), IHC", "setting": "Syn^A53T-Tg mice; intraperitoneal, 20 mg/kg or 40 mg/kg, 24 to 26 weeks, FIG. 2B", "result": "maintained"},
      {"measurement": "impact on cell viability (MTT)", "setting": "normal human fibroblasts; high doses (50 and 100 µM), cell type not given", "result": "low impact on cell viability"}
    ]},
    {"smiles": "COc1cc(/C=C/CO[C@H]2Cc3cc4ccc(=O)oc4cc3OC2(C)C)ccc1O", "note": "[PRG-A-02, (S,E)-7-((3-(4-hydroxy-3-methoxyphenyl)allyl)oxy)-8,8-dimethyl-7,8-dihydro-2H,6H-pyrano[3,2-g]chromen-2-one]", "values": [
      {"measurement": "cytotoxic effects (cell viability, MTT)", "setting": "normal human fibroblasts", "result": "did not exhibit cytotoxic effects"}
    ]},
    {"smiles": "CC1(C)Oc2cc3oc(=O)ccc3cc2C[C@@H]1O", "note": "[Chem-001, decursinol]", "values": [
      {"measurement": "Aggregated synuclein (immunofluorescence)", "setting": "Syn-A53T", "result": "marginal effects"}
    ]},
    {"smiles": "COc1cc(/C=C/C(=O)O[C@H]2Cc3cc4ccc(=O)oc4cc3OC2(C)C)ccc1O", "note": "[PRG-A-01, (S)-8,8-dimethyl-2-oxo-7,8-dihydro-2H,6H-pyrano[3,2-g]chromen-7-yl (E)-3-(4-hydroxy-3-methoxyphenyl)acrylate]", "values": [
      {"measurement": "cytotoxic effects (cell viability, MTT)", "setting": "normal human fibroblasts", "result": "did not exhibit cytotoxic effects"}
    ]}
  ]
}
